From patent publication US8470872B2, “Compounds with activity at estrogen receptors” (Acadia Pharmaceuticals Inc., priority 2007, dated 2013)

Assays:
ERα [1] = molecular target: T1, ERα (Homo sapiens, UniProt P03372); assay: Luciferase reporter gene assay (3*ERE) in HEK293 cells, ERα; assay type: cell-based; settings: 48 hours with test compounds; for EC50: read-out: Luciferase ERα pEC50 (converted)
T1 sequence (P03372 1-595): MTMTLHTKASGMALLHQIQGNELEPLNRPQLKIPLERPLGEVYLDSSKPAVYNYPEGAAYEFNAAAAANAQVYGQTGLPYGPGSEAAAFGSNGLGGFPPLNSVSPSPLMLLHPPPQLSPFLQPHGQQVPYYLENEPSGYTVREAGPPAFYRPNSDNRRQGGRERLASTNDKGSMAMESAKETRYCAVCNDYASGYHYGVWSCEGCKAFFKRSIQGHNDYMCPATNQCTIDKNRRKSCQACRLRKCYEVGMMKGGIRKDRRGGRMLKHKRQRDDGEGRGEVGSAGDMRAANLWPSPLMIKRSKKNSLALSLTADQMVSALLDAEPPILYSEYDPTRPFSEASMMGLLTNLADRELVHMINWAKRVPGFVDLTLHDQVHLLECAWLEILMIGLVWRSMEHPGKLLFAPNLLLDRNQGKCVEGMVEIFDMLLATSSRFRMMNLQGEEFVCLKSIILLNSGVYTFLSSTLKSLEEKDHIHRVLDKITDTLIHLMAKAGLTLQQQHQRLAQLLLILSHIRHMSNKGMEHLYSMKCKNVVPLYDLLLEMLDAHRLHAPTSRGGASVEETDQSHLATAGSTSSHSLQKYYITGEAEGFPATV
Experimental: (§1) HEK293 cells were grown to 70% confluency in DMEM containing 10% calf serum (Hyclone) prior to transfection. On the day of transfection (day 1), expression vectors for ERa or ERb were cotransfected along a construct containing a synthetic 3*ERE (estrogen response element) upstream of the luciferase gene (Panomics), using Polyfect (Qiagen) per manufacturer's recommendations. Sixteen hours post-transfection, cells were incubated in serum free DMEM. On day 3, cells were incubated with the test compounds for 48 hours in serum free DMEM. Cells extracts were then obtained by lyzing and the Luciferase activity measured. All of these steps were performed using a commercially available kit (Promega).

ERβ [2] = molecular target: T2, ERβ (Homo sapiens, UniProt Q92731); assay: Luciferase reporter gene assay (3*ERE) in HEK293 cells, ERβ; assay type: cell-based; settings: 48 hours with test compounds; for EC50: read-out: Luciferase ERβ pEC50 (converted)
T2 sequence (Q92731 whole entry, species assumed): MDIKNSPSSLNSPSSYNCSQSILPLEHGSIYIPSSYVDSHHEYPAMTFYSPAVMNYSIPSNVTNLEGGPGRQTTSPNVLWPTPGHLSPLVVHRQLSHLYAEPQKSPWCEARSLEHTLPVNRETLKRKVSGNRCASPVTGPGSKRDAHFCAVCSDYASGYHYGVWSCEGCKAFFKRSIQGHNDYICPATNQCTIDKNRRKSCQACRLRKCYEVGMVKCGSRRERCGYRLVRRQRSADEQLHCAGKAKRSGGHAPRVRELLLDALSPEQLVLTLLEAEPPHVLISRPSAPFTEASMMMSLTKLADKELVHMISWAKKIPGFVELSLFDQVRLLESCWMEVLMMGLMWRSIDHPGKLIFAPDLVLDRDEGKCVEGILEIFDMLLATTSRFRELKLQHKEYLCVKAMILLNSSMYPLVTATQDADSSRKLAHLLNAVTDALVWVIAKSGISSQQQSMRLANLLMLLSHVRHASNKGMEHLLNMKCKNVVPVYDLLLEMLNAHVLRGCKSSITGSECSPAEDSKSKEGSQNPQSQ
Experimental: as §1

ERα [3] = molecular target: T1, ERα; assay: R-SAT (Receptor Selection and Amplification Technology) functional assay, ERα; assay type: cell-based; parameters: expressed in transfected cells; host or cells: NIH-3T3 fibroblasts, transient transfection; settings: NIH-3T3 fibroblasts transfected with receptor, na = not active; for EC50: read-out: R-SAT ERα pEC50 (converted)
From the text: (§2) R-SAT® (Receptor Selection and Amplification Technology) is a cell-based functional assay that allows one to monitor receptor-dependent proliferative responses and has been described elsewhere. The technology has been validated for a number of receptors including GPCRs (Brauner-Osborne and Brann 1996), RTKs (Burstein et al. 1998), cytokine receptors (Piu et al. 2002) and nuclear receptors (Piu et al. 2005; Piu et al. 2006). This process is achieved by partial cellular transformation via loss of contact inhibition and growth factor dependency. Monitoring is achieved by transfecting the cells with a β-galactosidase reporter gene vector whose expression is under a constitutively active promoter. Briefly, NIH-3T3 fibroblasts were plated overnight in 96-wells plates in DMEM 10% calf serum (Hyclone) and grown to 60-70% confluency prior to transfection. Transient transfections were performed using Polyfect (Qiagen) according to manufacturer's instructions. Typically a transfection mix would consist of the receptor and the β-galactosidase expression vectors. Sixteen hours post-transfection, cells were incubated with different doses of ligand in DMEM containing 30% Ultraculture (Hyclone) and 0.4% calf serum (Hyclone) to generate a dose response curve. After 5 days, plates were developed by adding onto the washed cells a solution containing the β-galactosidase substrate o-nitrophenyl-D-galacto pyranoside ONPG (in phosphate-buffered saline with 5% Nonidet P-40 detergent) as described (Piu et al. 2002). Plates were read using a microplate reader at 420 nm. Data from R-SAT® assays were fit to the equation: r=A+B(x/(x+c)), where A=minimum response, B=maximum response minus minimum response, c=EC50, r=response, and x=concentration of ligand. Curves were generated using the curve fitting softwares Excel Fit and GraphPad Prism (San Diego, Calif.).

ERβ [4] = molecular target: T2, ERβ; assay: R-SAT (Receptor Selection and Amplification Technology) functional assay, ERβ; assay type: cell-based; parameters: expressed in transfected cells; host or cells: NIH-3T3 fibroblasts, transient transfection; settings: NIH-3T3 fibroblasts transfected with receptor, na = not active; for EC50: read-out: R-SAT ERβ pEC50 (converted)
From the text: as §2

ERα [5] = molecular target: T1, ERα; assay: Competitive 3H-estradiol binding assay, ERα; settings: cytosolic extracts of transfected HEK293T cells, 1 nM 3H-estradiol; read-out: Binding ERα pKi (converted)
Experimental: (§3) HEK293T cells were transiently transfected for 48 hours with expression vectors encoding ERα or ERβ, before being serum starved for 4-6 hours. Cells were then harvested by scraping in ice-cold PBS and subsequently lysed using a cold buffer containing 10 mM Tris pH 7.4, 1 mM EDTA, 1 mM DTT before being subjected to polytron twice for 10 seconds. Cytosolic extracts were isolated by centrifugation at 15000 g for 30 minutes at 4° C. Competitive binding of the test compounds or the estradiol control was performed on 20 uL extract by overnight incubation at 4° C. in a total volume of 100 μL containing 1 nM ^3H-estradiol (Perkin Elmer, Boston, Mass.). The bound fraction was separated from the unbound one by the addition of 100 μL of Dextran coated charcoal, incubated for 10 minutes and subsequent centrifugation at 1000 rpm for 10 minutes. Samples (100 μL per sample) were then analyzed by liquid scintillation. Data was then analyzed using the curve fitting software GraphPad Prism.

ERβ [6] = molecular target: T2, ERβ; assay: Competitive 3H-estradiol binding assay, ERβ; settings: cytosolic extracts of transfected HEK293T cells, 1 nM 3H-estradiol; read-out: Binding ERβ pKi (converted)
Experimental: as §3

Question: Which results are given for `Oc1ccc(C23CCCCCC2Oc2cccc(F)c23)cc1` (single isomer, unassigned) [Compound 231, 4-(1-Fluoro-6,7,8,9,10,10a-hexahydro-5aH-benzo[b]cyclohepta[d]-furan-10a-yl)phenol]?
Answer: Luciferase ERα % Eff (ERα [1]): 43%; EC50 (ERα [1]): 200 nM; Luciferase ERβ % Eff (ERβ [2]): 114%; EC50 (ERβ [2]): 0.158 nM; R-SAT ERα % Eff (ERα [3]): 86%; EC50 (ERα [3]): 158 nM; R-SAT ERβ % Eff (ERβ [4]): 91%; EC50 (ERβ [4]): 1 nM

Question: How did the “Luciferase ERα % Eff” value (ERα [1]) turn out when `Oc1ccc(C23CCCCCC2Oc2cccc(F)c23)cc1` (single isomer, unassigned) [Compound 232, 4-(1-Fluoro-6,7,8,9,10,10a-hexahydro-5aH-benzo[b]cyclohepta[d]-furan-10a-yl)phenol] was run?
Answer: 27%

Question: What about the EC50 (ERα [1]) of the same compound?
Answer: 1260 nM

Question: And the “Luciferase ERβ % Eff” value (ERβ [2])?
Answer: 80%

Question: What about the EC50 (ERβ [2]) of the same compound?
Answer: 7.94 nM

Question: What about the “R-SAT ERα % Eff” value (ERα [3]) of the same compound?
Answer: 37%

Question: What about the EC50 (ERα [3]) of the same compound?
Answer: 794 nM

Question: What about the “R-SAT ERβ % Eff” value (ERβ [4]) of the same compound?
Answer: 76%

Question: What about the EC50 (ERβ [4]) of the same compound?
Answer: 10 nM

Question: With `Oc1ccc(C23CCCCCC2Oc2cccc(F)c23)cc1` (single isomer, unassigned) [Compound 982, 4-(1-Fluoro-6,7,8,9,10,10a-hexahydro-5aH-benzo[b]cyclohepta[d]-furan-10a-yl)phenol] as the compound, how does the “R-SAT ERα % Eff” value (ERα [3]) read?
Answer: 108%

Question: What about the EC50 (ERα [3]) of the same compound?
Answer: 15.8 nM

Question: And the “R-SAT ERβ % Eff” value (ERβ [4])?
Answer: 87%

Question: And the EC50 (ERβ [4])?
Answer: 0.0501 nM

Question: How did the “Luciferase ERα % Eff” value (ERα [1]) turn out when `Oc1ccc(C23CCCCC2Oc2cccc(F)c23)cc1` (centres unmarked) [Compound 130, 4-(1-Fluoro-5a,6,7,8,9,9a-hexahydrodibenzo[b,d]furan-9a-yl)phenol] was run?
Answer: 51%

Question: What about the EC50 (ERα [1]) of the same compound?
Answer: 631 nM

Question: And the “Luciferase ERβ % Eff” value (ERβ [2])?
Answer: 129%

Question: And the EC50 (ERβ [2])?
Answer: 2.51 nM

Question: And the Ki (ERα [5])?
Answer: 126 nM

Question: What about the Ki (ERβ [6]) of the same compound?
Answer: 25.1 nM

Question: And the “R-SAT ERα % Eff” value (ERα [3])?
Answer: 70%

Question: And the EC50 (ERα [3])?
Answer: 631 nM

Question: And the “R-SAT ERβ % Eff” value (ERβ [4])?
Answer: 97%

Question: What about the EC50 (ERβ [4]) of the same compound?
Answer: 6.31 nM

Question: How did the “Luciferase ERα % Eff” value (ERα [1]) turn out when `Oc1ccc(C23CCCCC=C2Oc2cccc(F)c23)cc1` (centres unmarked) [Compound 349, (E)-4-(1-Fluoro-8,9,10,10a-tetrahydro-7H-benzo[b]cyclohepta-[d]furan-10a-yl)phenol] was run?
Answer: 6.4%

Question: What about the EC50 (ERβ [2]) of the same compound?
Answer: 316 nM

Question: And the “R-SAT ERα % Eff” value (ERα [3])?
Answer: 16%

Question: And the “R-SAT ERβ % Eff” value (ERβ [4])?
Answer: 24%

Question: Which “Luciferase ERα % Eff” value (ERα [1]) does the source give for `Oc1ccc(C23CCCCCC2Oc2c(F)cccc23)cc1` (centres unmarked) [Compound 447, 4-(4-Fluoro-6,7,8,9,10,10a-hexahydro-5aH-benzo[b]cyclohepta-[d]furan-10a-yl)phenol] here?
Answer: 25%

Question: And the EC50 (ERα [1])?
Answer: 398 nM

Question: What about the “Luciferase ERβ % Eff” value (ERβ [2]) of the same compound?
Answer: 122%

Question: And the EC50 (ERβ [2])?
Answer: 0.631 nM

Question: And the “R-SAT ERα % Eff” value (ERα [3])?
Answer: 97%

Question: What about the EC50 (ERα [3]) of the same compound?
Answer: 398 nM

Question: And the “R-SAT ERβ % Eff” value (ERβ [4])?
Answer: 85%

Question: And the EC50 (ERβ [4])?
Answer: 5.01 nM

Question: Which results are given for `Oc1ccc(C23CCCCCC2Oc2ccc(F)cc23)cc1` (centres unmarked) [Compound 448, 4-(2-Fluoro-6,7,8,9,10,10a-hexahydro-5aH-benzo[b]cyclohepta[d]-furan-10a-yl)phenol]?
Answer: Luciferase ERα % Eff (ERα [1]): 36%; EC50 (ERα [1]): 316 nM; Luciferase ERβ % Eff (ERβ [2]): 114%; EC50 (ERβ [2]): 0.1 nM; R-SAT ERα % Eff (ERα [3]): 92%; EC50 (ERα [3]): 398 nM; R-SAT ERβ % Eff (ERβ [4]): 83%; EC50 (ERβ [4]): 1.26 nM

Question: What does the source list for `Oc1ccc(C23CCCCCC2Oc2ccccc23)cc1` (centres unmarked) [Compound 807, 4-(6,7,8,9,10,10a-Hexahydro-5aH-benzo[b]cyclohepta[d]furan-10a-yl)phenol]?
Answer: Luciferase ERα % Eff (ERα [1]): 51%; EC50 (ERα [1]): 316 nM; Luciferase ERβ % Eff (ERβ [2]): 81%; EC50 (ERβ [2]): 0.316 nM; Ki (ERα [5]): 79.4 nM; Ki (ERβ [6]): 5.01 nM; R-SAT ERα % Eff (ERα [3]): 93%; EC50 (ERα [3]): 398 nM; R-SAT ERβ % Eff (ERβ [4]): 99%; EC50 (ERβ [4]): 1.26 nM

Question: With `Oc1ccc(C23CCCCC2Oc2ccccc23)cc1` (centres unmarked) [Compound 961, 4-(5a,6,7,8,9,9a-Hexahydrodibenzo[b,d]furan-9a-yl)phenol] as the compound, how does the “Luciferase ERα % Eff” value (ERα [1]) read?
Answer: 54%

Question: What about the EC50 (ERα [1]) of the same compound?
Answer: 794 nM

Question: And the “Luciferase ERβ % Eff” value (ERβ [2])?
Answer: 86%

Question: And the EC50 (ERβ [2])?
Answer: 7.94 nM

Question: And the “R-SAT ERα % Eff” value (ERα [3])?
Answer: 95%

Question: What about the EC50 (ERα [3]) of the same compound?
Answer: 1000 nM

Question: And the “R-SAT ERβ % Eff” value (ERβ [4])?
Answer: 100%

Question: And the EC50 (ERβ [4])?
Answer: 10 nM
